# Values of other authors in patent publication US8557989B2, “Electrochemical affinity biosensor system and methods” (priority 2003, dated 2013).
# Biological target: glucose oxidase (Aspergillus niger, UniProt P13006)
# Details: with glucose oxidase
# glucose oxidase, sequence (P13006 17-605): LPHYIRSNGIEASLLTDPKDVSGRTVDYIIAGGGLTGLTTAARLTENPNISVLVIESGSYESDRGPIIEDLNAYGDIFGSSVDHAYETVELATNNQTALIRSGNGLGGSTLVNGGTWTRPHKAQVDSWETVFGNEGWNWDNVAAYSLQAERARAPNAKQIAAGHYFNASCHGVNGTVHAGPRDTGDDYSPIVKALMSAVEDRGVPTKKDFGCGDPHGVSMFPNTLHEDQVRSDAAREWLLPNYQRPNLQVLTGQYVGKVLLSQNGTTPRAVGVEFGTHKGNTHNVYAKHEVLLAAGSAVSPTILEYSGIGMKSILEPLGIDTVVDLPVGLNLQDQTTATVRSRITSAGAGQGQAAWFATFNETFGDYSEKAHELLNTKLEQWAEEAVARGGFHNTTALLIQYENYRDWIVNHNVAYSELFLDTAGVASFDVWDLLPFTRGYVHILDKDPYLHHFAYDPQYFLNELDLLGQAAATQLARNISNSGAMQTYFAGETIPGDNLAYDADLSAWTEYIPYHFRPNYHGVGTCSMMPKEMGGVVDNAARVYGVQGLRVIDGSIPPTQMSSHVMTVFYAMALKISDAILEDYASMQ
substance,measurement,value
"bis(2,2′-bipyridyl) imidazole chloro osmium (III) dichloride [osmium free mediator]","mediation kinetics, times faster than ferricyanide",about 500 times
